Results published in patent US7470678B2, “Diphenylazetidinone derivatives for treating disorders of the lipid metabolism” (AstraZeneca AB, priority 2002, dated 2008).

Legend:
[1] = Absorption in a Caco-2 cells model; assay type: in vitro ADME; settings: human, read-out: Apparent partition coefficient, Papp
Experimental: (§1) The absorption of the compounds of formula (I) was tested in a Caco-2 cells model (Gastroenterology 1989, 96, 736).

Caco-2 cells = experiment: Absorption in a Caco-2 cells model; assay type: in vitro ADME
Experimental: as §1

Row | Compound | Papp [1] [×10⁻⁶ cm/s] | Apparent partition coefficient; Papp [cm/s] (Caco-2 cells) | absorption compared with ezetimibe (Caco-2 cells; compared with ezetimibe)
1 | O=C1[C@H](CC[C@H](O)c2ccc(F)cc2)[C@@H](c2ccc(O)cc2)N1c1ccc(F)cc1 [Ezetimibe, reference compound] | 21 | – | –
2 | O=C(O)CNC(=O)COc1ccc(C2C(SCC(O)c3ccc(F)cc3)C(=O)N2c2ccccc2)cc1 [Example 24, 3-(R)-4-(R)-1-(Phenyl)-3-[2-(4-fluorophenyl)-2-hydroxyethylsulphany[-4-{4-[N-(carboxymethyl)carbamoylmethoxy]phenyl}azetidin-2-one] | – | 0.24 × 10^−06 cm/s | much lower absorption
